Measured values from patent US9359371B2, “Bicyclic substituted pyrimidine compounds” (Xuanzhu Pharma Co., Ltd., priority 2012, dated 2016).
Read-outs that look alike come from different tables or passages of the source.

Experiments:
[1] = target: PDE-5 enzyme (human blood platelets) (Homo sapiens (Human), UniProt O76074); test: PDE-5 enzyme assay, [3H]cGMP; type: biochemical
bovine retinal PDE-6 [2] = target: bovine retinal PDE-6 (Bos taurus (Bovine), UniProt P11541+P23439); test: PDE-6 enzyme assay, [3H]cGMP; type: biochemical
Experimental: (§1) Experiment 3: Measurement of Enzyme Activity on PDE-6 Enzyme In Vitro
(§2) Source of enzyme: PDE-6, bovine retinal PDE-6
(§3) Method: The test compound or solvent was incubated at 25° C. for 15 min with enzyme solution (0.2 μg/mL) in Tris-HCl buffer of pH 7.5. 100 μM cGMP and 0.03 μM [^3H] cGMP were then added to activate the reaction. The mixture was incubated for 20 min. The reaction was stopped at 100° C. By addition of snake venom nucleotidase, the product [^3H] GMP was converted into [^3H] Guanosine, which was separated with AG1-X2 resin. The amount of [^3H] Guanosine was measured.

bovine retinal PDE-6 [3] = test: PDE-6 enzyme assay, [3H]cGMP; type: biochemical
Experimental: as §1, §2, §3

[4] = tested on: length of New Zealand rabbit's penis; test: Pharmacological activity in vivo (intravenous injection), rabbit penis length; design: species or system New Zealand rabbits; conditions: Table 5; iv 10 mg/kg, 1 mL/kg; sodium nitroprussiate 0.2 mg/kg iv 5 min after; 0-120 min
Experimental: Experiment 5: Assay of Pharmacological Activity In Vivo (Intravenous Injection)
After accommodating with the environment, the New Zealand rabbits were grabbed everyday. When the rabbits were accustomed to the repeated grabbing, drug administration was began. The animals were randomly divided into groups by weight. The test compounds were separately dissolved in menstruum. […] The corresponding test compounds were injected into the auricular veins of animals of each group. The dosage of the compounds in Table 5 was 10 mg/kg, and the administration volume was 1 mL/kg. The dosage of the compounds in Table 6 was 10 mg/kg, and the administration volume was 2 mL/kg. 0.2 mg/kg sodium nitroprussiate was intravenously injected into the rabbits 5 min after the administration of the test compounds, with the administration volume of 0.5 mL/kg.
The length of the rabbit's penis was measured with a digital caliper before and 10, 15, 30, 50, 60, 90 and 120 min after the administration. Touch of the rabbit's penis by the caliper was avoided during the measurements.

[5] = tested on: length of New Zealand rabbit's penis; test: Pharmacological activity in vivo (oral administration, 70 mg/kg, with SNP), rabbit penis length; design: species or system New Zealand rabbits; conditions: Table 8; oral 70 mg/kg; SNP 0.2 mg/kg iv 60 min after; 0-180 min
Experimental: Experiment 7: Assay of Pharmacological Activity In Vivo (Oral Administration)
After accommodating with the environment, the New Zealand rabbits were grabbed everyday. When the rabbits were accustomed to the repeated grabbing, drug administration was began. The animals were randomly divided into groups by weight, with 6 rabbits of each group. […] The corresponding test compounds were orally administrated to animals of each group. The dosage was 70 mg/kg, and the administration volume was 1 mL/kg. SNP (0.2 mg/kg, 0.5 mL/kg) was injected into the auricular veins of rabbits 60 min after the administration of the test compounds. The length of the rabbit's penis was measured with a digital caliper before and 10, 15, 30, 50, 60, 65, 70, 75, 90, 110, 120 and 180 min after the administration. Touch of the rabbit's penis by the caliper was avoided during the measurements.

[6] = Pharmacokinetics (PK) in SD rats; type: in vivo; conditions: rat, 1 mg/kg
[7] = SD, plasma, po, intragastric administration
[8] = SD, plasma, intravenous injection

Sequence of bovine retinal PDE-6 (Bos taurus (Bovine), UniProt P11541+P23439) (P11541 whole entry, looked up): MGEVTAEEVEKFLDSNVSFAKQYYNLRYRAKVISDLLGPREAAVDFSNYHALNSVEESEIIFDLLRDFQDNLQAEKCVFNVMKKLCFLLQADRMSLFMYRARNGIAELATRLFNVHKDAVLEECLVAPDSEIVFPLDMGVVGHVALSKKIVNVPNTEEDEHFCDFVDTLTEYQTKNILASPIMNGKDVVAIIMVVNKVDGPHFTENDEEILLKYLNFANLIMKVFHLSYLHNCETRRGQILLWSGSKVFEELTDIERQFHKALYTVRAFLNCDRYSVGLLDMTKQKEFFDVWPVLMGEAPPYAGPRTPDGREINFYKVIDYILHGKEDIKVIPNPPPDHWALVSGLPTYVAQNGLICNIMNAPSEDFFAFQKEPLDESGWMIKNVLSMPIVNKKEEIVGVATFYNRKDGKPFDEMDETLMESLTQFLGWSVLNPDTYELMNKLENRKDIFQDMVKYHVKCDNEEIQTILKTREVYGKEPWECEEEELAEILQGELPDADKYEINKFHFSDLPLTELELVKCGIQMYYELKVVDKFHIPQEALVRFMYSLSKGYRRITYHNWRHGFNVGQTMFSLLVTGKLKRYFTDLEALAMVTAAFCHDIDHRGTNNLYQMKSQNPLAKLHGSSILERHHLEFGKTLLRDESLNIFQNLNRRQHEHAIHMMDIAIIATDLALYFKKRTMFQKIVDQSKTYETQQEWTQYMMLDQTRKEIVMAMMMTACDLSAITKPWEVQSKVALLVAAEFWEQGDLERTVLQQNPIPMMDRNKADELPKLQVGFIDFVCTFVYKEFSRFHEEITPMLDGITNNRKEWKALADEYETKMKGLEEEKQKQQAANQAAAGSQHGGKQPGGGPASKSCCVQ
Sequence of bovine retinal PDE-6 (Bos taurus (Bovine), UniProt P11541+P23439) (P23439 whole entry, looked up): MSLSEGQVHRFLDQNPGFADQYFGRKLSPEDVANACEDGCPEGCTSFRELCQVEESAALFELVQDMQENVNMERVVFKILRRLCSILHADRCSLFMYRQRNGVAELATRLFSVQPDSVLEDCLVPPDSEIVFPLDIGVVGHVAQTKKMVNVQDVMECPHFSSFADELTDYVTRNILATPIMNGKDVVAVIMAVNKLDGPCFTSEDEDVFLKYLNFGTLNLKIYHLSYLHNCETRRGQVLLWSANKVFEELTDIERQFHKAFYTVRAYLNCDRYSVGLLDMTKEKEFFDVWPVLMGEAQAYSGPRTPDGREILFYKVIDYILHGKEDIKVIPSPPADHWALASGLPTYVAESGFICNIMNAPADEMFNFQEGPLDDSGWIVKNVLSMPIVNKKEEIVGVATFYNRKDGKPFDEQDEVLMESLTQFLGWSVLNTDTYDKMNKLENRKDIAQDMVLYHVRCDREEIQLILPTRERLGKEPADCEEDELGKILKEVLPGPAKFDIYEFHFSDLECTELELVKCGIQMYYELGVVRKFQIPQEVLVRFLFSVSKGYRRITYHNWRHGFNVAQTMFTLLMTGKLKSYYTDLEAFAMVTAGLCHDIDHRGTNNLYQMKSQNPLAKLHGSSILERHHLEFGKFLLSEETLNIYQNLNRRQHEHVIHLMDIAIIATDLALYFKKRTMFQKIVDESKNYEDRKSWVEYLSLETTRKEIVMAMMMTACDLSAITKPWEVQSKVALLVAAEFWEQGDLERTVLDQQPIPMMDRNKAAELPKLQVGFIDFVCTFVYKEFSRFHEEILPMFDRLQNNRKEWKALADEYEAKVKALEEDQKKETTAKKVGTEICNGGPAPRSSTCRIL

Compound: COc1ccc(CNc2nc(N3CC4CC4C3)ncc2C(=O)N[C@H]2CC[C@H](O)CC2)cc1Cl (stereo partly drawn) [Compound 11, 2-(3-azabicyclo[3.1.0]hexan-3-yl)-4-((3-chloro-4-methoxybenzyl)amino)-N-(trans-4-hydroxycyclohexyl)pyrimidine-5-formamide]
- IC50 ([1]; Table 2-1, repetition, read-out: IC50 on PDE-5 (repetition of Example 2)): 0.41 nM
- IC50 ([1]; Table 2, human blood platelet enzyme, read-out: IC50 on PDE-5): 1.31 nM
- IC50 ([1]; Table 4-1, read-out: PDE-5 (IC50 nM)): 0.41 nM
- IC50 (bovine retinal PDE-6 [2]; Table 3, read-out: IC50 on PDE-6): 61 nM
- IC50 (bovine retinal PDE-6 [2]; Table 4-1, read-out: PDE-6 (IC50 nM)): 61 nM
- Selectivity (PDE-6/PDE-5) (bovine retinal PDE-6 [3]; IC50 for PDE-6/IC50 for PDE-5): 148
- selectivity on PDE-5 enzyme versus PDE-6 (in words) (bovine retinal PDE-6 [3]; selectivity >70 called high): higher selectivity on PDE-5 enzyme than to PDE-6
- AUC of penis length [4]: 323.3 mm × min
- AUC of penis length [5]: 540.7 mm × min
- AUC(0-inf) [6, 7]: 604 ng·h/mL
- Cmax [6, 7]: 133 ng/mL
- Tmax [6, 7]: 1 h
- half-life [6, 7]: 2.03 h
- bioavailability ([6]; SD, plasma, po, intragastric administration, read-out: F % (absolute bioavailability)): 70.4%
- AUC(0-inf) [6, 8]: 858 ng·h/mL
- half-life [6, 8]: 2.4 h
- AUCinf ([6]; intragastric administration): higher exposure quality (AUC)
- F % (absolute bioavailability) ([6]; intragastric administration): higher exposure quality (AUC) and bioavailability than Compound WO-88
- AUCinf ([6]; intravenous injection): higher exposure quality (AUC)
- Cl_obs ([6]; intravenous injection): 19.7 mL/min/kg
- T1/2 ([6]; intravenous injection): longer half-life
- Vss_obs ([6]; intravenous injection): 3.44 L/kg
